Entries after “also recorded” stand apart in the source; their conditions may differ.
What was measured:
[1] = system: DRG nociceptors; assay: Whole-cell patch clamp recordings in whole-mount DRGs ex vivo; type: cell-based, mouse; settings: PTX-treated Ifnar1-WT or Ifnar1-KO mice, ex vivo incubation 30 μM
Protocol: Whole-cell patch clamp recordings in whole-mount DRGs ex vivo: To test the effects of anti-IFNβ neutralizing antibodies, naïve male and female mice were utilized. […] To perform whole-cell patch clamp recordings in whole-mount DRGs, L1-L5 DRGs were carefully isolated and placed in oxygenated ACSF. Using a stereoscope, peripheral and central DRG projections and connective tissue were dissected away. DRGs were lightly digested for 20 minutes using an enzymatic mixture consisting of 0.32 ml collagenase A (1 mg/mL) and Trypsin (0.25%). […] Following incubation, DRGs were transferred to a recording chamber, where neurons could be visualized using a 40× water-immersion objective on an Olympus BX51WI microscope. The recording chamber was continuously perfused (2-3 ml/min) with ACSF. The pipette solution contained 140 mM KC1, 2 mM MgCl2, 10 mM HEPES, 2 mM Mg-ATP at pH 7.4. The resistance of the glass pipettes was 8-10 MΩ. Data were acquired and analyzed using the pClamp10 (Axon Instruments) software.

[2] = system: rhesus macaques (Macaca mulatta); assay: Menthol gel-induced cold allodynia, cold-water tail-withdrawal assay in non-human primates; type: in vivo
Protocol: Behavioral testing in non-human primates: Five adult rhesus monkeys (Mucaca mulatta, 9.3-13.8 kg) were maintained in an AAALAC-approved facility at Wake Forest University School of Medicine in accordance with Wake Forest University IACUC regulations. Animals were individually housed in temperature- and humidity-controlled species-specific rooms maintained in a 12 h light/12 h dark cycle. All animals have been previously trained in the tail-withdrawal assay. All experimental procedures were conducted in accordance with the Guide for the Care and Use of Laboratory Animals standards adopted by the NIH. Drug infusion was through a previously implanted spinal catheter. Behavioral testing was performed by an experimenter who was blinded to the drug being administered. A cold-water tail-withdrawal assay was used to evaluate nociceptive responses to 16° C. water with a cut-off of 20 sec. 0.3 mL of 2% menthol gel (Millipore Sigma) was applied to the tail for 3 minutes to induce transient and reversible cold allodynia.

[3] = system: naïve mice; assay: Naloxone reversal of antinociception; type: in vivo, mouse; settings: naloxone 10 mg/kg i.p.; morphine 2 nmol i.t., DMXAA or ADU-S100 35 nmol i.t.
Protocol: Following naloxone delivery, mice were tested within 15 minutes. For the experiments testing whether mice developed tolerance to the effects of STING agonists, vehicle or DMXAA (35 nmol) were administered via i.t. injection. Naïve mice received five single injections at D0, D3, D6, D9, and D12, with testing each day 4 h after injection. SNI mice received injections on two consecutive days beginning on D7 (D7 and D8) and every 48 h afterwards following the conclusion of sensory testing (D10, D12, D14, D16, and D18). Spinal cords (L4-L5) were collected for analysis of glial cell activation at D21 following SNI.

[4] = system: bone marrow-derived macrophages (BMDM); assay: In vitro osteoclastogenesis from bone marrow-derived macrophages (BMDM), TRAP staining; type: cell-based, mouse; settings: 30 μM, WT vs STING^gt/gt or Ifnar1^−/−
Protocol: In vitro induction of osteoclastogenesis and TRAP staining. For in vitro drug treatment, the RAW 264.7 cells were incubated with 35 ng/ml RANKL for six days. Isolated bone marrow cells were cultured overnight in α-MEM media containing 10% fetal bovine serum and 1% antibiotic-antimycotic solution. The suspended cells were collected and incubated with 20 ng/ml MCSF for 3 days to obtain bone marrow-derived macrophage (BMDM). The attached cells were further activated by 35 ng/ml RANKL and 20 ng/ml MCSF. Drug treatment was performed in tandem with RANKL. Culture medium and co-cultured reagents were changed every 3 days. After 6 or 7 days of incubation, the cells were fixed by 4% PFA and stained with warm TRAP staining solution (TRAP kit, Sigma-Aldrich, SLBW4002) for 10-30 min at 37° C.

[5] = system: tumor-infiltrating lymphocytes (TILs); assay: Flow cytometry of tumor-infiltrating lymphocytes in bone marrow; type: in vivo, mouse; settings: 24 h after second injection
Protocol: Flow cytometry. For analysis of immune subsets present within the bone marrow tumor microenvironment, bone marrow was collected as previously described followed by removal of RBC cells using RBC lysis buffer (Sigma, R7757). Cells were subsequently washed with PBS and resuspended in 2% paraformaldehyde in PBS for 10 minutes. Fixed cells were washed several times with PBS, followed by incubation in blocking buffer (1% anti-mouse-CD16/CD32, 2.4 G2, 2% FBS, 5% NRS, 1% triton ×100 and 2% NMS in HBSS; BD Bioscience) for 1 h at room temperature. Cells were subsequently stained with IL-17-FITC (1:20, rat, Miltenyi Biotec, 130-102-262), CD-3 APC/cy7 (1:200, rat, Biolegend, 100221), CD-4 APC (1:200, rat, Biolegend, 100411), FoxP3-PE (1:20, human, Miltenyl Biotec, 130-111-678), CD8a-FITC (1:200, rat, Biolegend, 100705), and CD11b-PE(1:200, rat, Biolegend, 101207) in blocking buffer for 1 h at room temperature. After staining, cells were washed in PBS with EDTA. Flow cytometry events were acquired by a BD FACS Canto II flow cytometer using the BD FACS Diva 8 software (BD Bioscience). Data were analyzed using Cytobank software (https://www.cytobank.org/cytobank).

Row | Compound | action potential firing of DRG nociceptors [1] | 2% menthol gel-induced cold allodynia ([2]; i.t. catheter) | intrathecal dose producing analgesia in NHPs ([2]; vs. 35 nmol in murine models) [nmol] | effect of naloxone on the antinociception of the substance [3] | osteoclast formation from BMDM [4] | proportion of CD4^+ T cells in bone marrow [5] | proportion of CD8^+ T cells in bone marrow [5] | proportion of T^reg cells in bone marrow [5]
1 | Nc1ncnc2c1ncn2[C@@H]1O[C@@H]2COP(=O)([S-])O[C@@H]3[C@H](O)[C@@H](COP([O-])(=S)O[C@H]2[C@H]1O)O[C@H]3n1cnc2c(N)ncnc21.[Na+].[Na+] (stereo partly drawn) [ADU-S100, (2′-5′)-[P(R)]-5′-O-[(R)-hydroxymercaptophosphinyl]-P-thioadenylyl-adenosine cyclic dinucleotide] | dramatically reduced action potential firing in WT mice, and this effect was abolished in Ifnar1-deficient neurons | long-lasting and dose-dependent analgesia; also recorded: attenuated 2% menthol gel-induced cold allodynia in a dose-dependent manner | 3 | had no effect | could significantly inhibit osteoclast formation from BMDM from WT mice but not from STING^gt/gt or Ifnar1^−/− mice | – | – | –
2 | Cc1ccc2c(=O)c3cccc(CC(=O)O)c3oc2c1C [DMXAA, 2-(5,6-dimethyl-9-oxo-9H-xanthen-4-yl)acetic acid] | – | – | – | had no effect | could significantly inhibit osteoclast formation from BMDM from WT mice but not from STING^gt/gt or Ifnar1^−/− mice | without significantly changing the proportion of (CD11b^− CD3^+) CD4^+ T cells | significantly increased the proportion of (CD11b^− CD3^+) CD8^+ T cells | decreased the proportion of T^reg cells

Source: US20230158057A1, “COMPOSITIONS AND METHODS FOR THE TREATMENT OF PAIN” (Duke University, priority 2020, published 2023)
